Results from patent US10363252B2, “Treatment of prostate cancer using hedgehog pathway inhibitors” (HEDGEPATH PHARMACEUTICALS, INC., priority 2013, dated 2019).

Legend:
HhP = conditions: major metabolite of itraconazole; cited from earlier work
[1] = plasma trough level of itraconazole required for clinical benefit in humans with cancer; type: in vivo, human
Procedure: In particular, the minimum plasma trough level after 4 weeks of therapy required to have a clinically significant effect was at least 1000 ng/ml. Achieving these levels of itraconazole is enhanced by the use of formulations with greater bioavailability such as SUBA-CAP™ formulation. […] These side effects associated with these high doses of itraconazole can be effectively managed by giving a selective mineralocorticoid antagonist, such as eplerenone. Accordingly, in some embodiments, the method further comprises administering eplerenone or other mineralocorticoid inhibitor.

Molecule	potency as a HhP inhibitor relative to itraconazole (HhP)	side-effects peculiar to high doses ([1]; high doses of itraconazole)	concentration at 4 weeks ([1]; human, plasma, after 4 weeks of therapy, humans with cancer, read-out: minimum plasma trough level required to have a clinically significant effect)
hydroxy-itraconazole	not equipotent	–	–
CCC(C)n1ncn(-c2ccc(N3CCN(c4ccc(OCC5COC(Cn6cncn6)(c6ccc(Cl)cc6Cl)O5)cc4)CC3)cc2)c1=O (stereo not drawn) [itraconazole]	–	hypertension, peripheral edema, and hypokalemia	≥ 1000 ng/mL
